Measured values reported in PMC4213378, “Pharmacokinetics and Efficacy of the Spleen Tyrosine Kinase Inhibitor R406 after Ocular Delivery for Retinoblastoma” (Pharmaceutical Research, 2014).

Columns and labels:
[1] = Crashing upon dilution of DMSO stock in PBS; assay type: physicochemical
From the text: Supplement 11095_2014_1399_MOESM1_ESM.docx, table 14: Table S14. R406 phenylsulfonate salt and free base crashing upon dilution of DMSO stock in PBS | column: Measured Concentration

[2] = Maximum solubility in PBS or saline; assay type: physicochemical; conditions: PBS; read-out: maximum solubility in PBS
[3] = Storage stability of R406 in murine plasma samples; assay type: physicochemical, mouse
Method: Stability: The extracted solution stability of R406 from murine plasma or vitreous was assessed at low (41.2nM), medium (370.4 nM), and high (3333.3 nM) concentrations in triplicate at room temperature. Blank murine plasma was spiked with the indicated concentrations of R406 and extracted solutions were stored at room temperature for day 0, and day 2. The short-term stability of R406 in murine plasma or vitreous at -20 °C was assessed at three concentrations in triplicate. Samples were thawed at day 1 and 2. At day 2, protein precipitation was performed and samples treated with internal standard/acetonitrile as described previously: for murine plasma samples, 50 µL of sample was quenched by addition of 100 µL of 5 mg/L OSI-906 (internal standard) in 100% acetonitrile, followed by plate sealing, shaking and centrifuging, transfer of 100 µL of supernatant injection of 10 µL of supernatant onto the LC–MS/MS system; for murine vitreous samples, 5 µL of sample quenched by addition of 45 µL of 5 mg/L OSI-906 (internal standard) in 100% acetonitrile, followed by plate sealing, shaking and centrifuging, transfer of 40 µL of supernatant injection of 10 µL of supernatant onto the LC–MS/MS system. Long term stability of R406 in murine plasma or vitreous at −80 °C was assessed. Unextracted spiked murine plasma or vitreous at low, medium, and high levels was frozen at −80 °C for 0, 7, and 14 days. Samples were thawed immediately extracted with acetonitrile/OSI-906, and quantitated. All samples were analyzed in triplicates.

[4] = Concentration and stability of R406 in castor oil and castor oil emulsion; assay type: physicochemical
Method: For oral delivery of R788, the target dose of 25 mg/kg R788 was administered by oral gavage as a 4 mM solution in 0.01 N citrate buffer, pH 6 ([9]). For subconjunctival administration, R788 was prepared at a concentration of 4 mM in 2% PEG-800 and filtered through a 0.22 μm filter prior to use (see Table S1). R788 was also administered subconjunctivally as a suspension at a concentration of 25 mM in 10% 2-hydroxylpropyl-β-cyclodextrin (HPβCD, Sigma-Aldrich). For subconjunctival administration, R406 phenylsulfonate salt was administered at a concentration of 800–900 μM as a cosolvent solution in a formulation of 5% Cremaphor-eL, 0.5% ethanol, 0.2% Tween 80 and 94.3% PBS, filtered through a 0.22 μm filter prior to use (see Table S2). R406 phenylsulfonate salt was also administered subconjunctivally at a dose of 31.4 mM solution in DMSO. R406 free base was administered subconjunctivally at a concentration of 6.5 mM as a 25% castor oil (Sigma-Aldrich) emulsion. This emulsion was prepared by mixing castor oil: ethanol (1:1) solution of R406 (approx. 35 mM), in vacuo evaporation of the ethanol, and centrifugation to remove any excess R406, then emulsifying the R406 oil phase in an aqueous phase comprised of Cremaphor-eL, Tween 80 and PBS (final composition of the emulsion: 25% castor oil, 5% Cremaphor-eL, 0.2% Tween-80, 69.8% PBS) by probe sonication. For intravitreal injection, R788 solution was prepared by filtering a 0.12 mM (120 μM) solution of R788 in saline through a 0.22 μm filter. […] For topical delivery, 25–30 mM suspensions were prepared in 5% HPβCD. R406 or R788 concentration in all formulations was determined by UPLC prior to study (in cases where formulation was filtered before administration, concentration was determined post-filtering) Table I.
An emulsion of 30% castor oil, 5% Cremaphor, 4% T80, 61% PBS was prepared and samples were stored at 4 °C and room temperature (25 °C). Samples were diluted and OD600 for each dilution was measured in triplicate on the day of emulsion preparation (storage time = 0 days) and after 6 days of storage. OD600 was measured using a black Costar clear bottom plate and a Spectramax plate reader.
For storage stability in emulsion, n =4.

[5] = Storage Time = 24 hr, room temperature
[6] = Storage Time = 48 hr, room temperature
[7] = Storage Time = 72 hr, room temperature

For `COc1cc(Nc2ncc(F)c(Nc3ccc4c(n3)NC(=O)C(C)(C)O4)n2)cc(OC)c1OC.O=S(=O)(O)c1ccccc1` [R406 phenylsulfonate salt], the “Measured Concentration” value ([1]; 10 mM DMSO stock diluted 1 in 10 in PBS prior to filtration) was 1010 µM, the “Measured Concentration” value ([1]; DMSO stock diluted 1 in 10 in PBS, 0.22 micron filtered) was 88 µM and the “Measured Concentration” value ([1]; DMSO stock diluted 1 in 20 in PBS prior to filtration) was 559 µM. For the same compound, the “Measured Concentration” value ([1]; DMSO stock diluted 1 in 20 in PBS, 0.22 micron filtered) was 98 µM and the solubility [2] was 0.4 µM.
In the case of `COc1cc(Nc2ncc(F)c(Nc3ccc4c(n3)NC(=O)C(C)(C)O4)n2)cc(OC)c1OC` [R406], the “time extracted samples were stable” value ([3]; extracted from murine plasma, room temperature) is reported as “at least 48 hours”, the Accuracy% ([3]; extracted plasma samples in autosampler for 2 days, injected at Day 3, High Control 3333.3 nM) is reported as 94.4% and the Accuracy% ([3]; extracted plasma samples in autosampler for 2 days, injected at Day 3, Low Control 41.2 nM) is reported as 97.4%. It also gave an Accuracy% ([3]; extracted plasma samples in autosampler for 2 days, injected at Day 3, Middle Control 370.4 nM) of 97.6%, an Accuracy% ([3]; murine plasma at -20°C, thawed on Day 2, injected at Day 3, High Control 3333.3 nM) of 95.6% and an Accuracy% ([3]; murine plasma at -20°C, thawed on Day 2, injected at Day 3, Low Control 41.2 nM) of 109.2%. For the same compound, the Accuracy% ([3]; murine plasma at -20°C, thawed on Day 2, injected at Day 3, Middle Control 370.4 nM) was 98.4%, the Accuracy% ([3]; murine plasma at -20°C, thawed on Day 3, injected at Day 3, Middle Control 370.4 nM) was 101.5% and the Accuracy% ([3]; murine plasma at -80°C, injected at Day 8, High Control 3333.3 nM) was 84.3%. For the same compound, the Accuracy% ([3]; murine plasma at -80°C, injected at Day 8, Low Control 41.2 nM) was 87.8%, the Accuracy% ([3]; murine plasma at -80°C, injected at Day 8, Middle Control 370.4 nM) was 93.1% and the Accuracy% ([3]; murine plasma at -80°C, injected at Day 15, High Control 3333.3 nM) was 89.5%. The Accuracy% ([3]; murine plasma at -80°C, injected at Day 15, Low Control 41.2 nM) was 84.8%, the Accuracy% ([3]; murine plasma at -80°C, injected at Day 15, Middle Control 370.4 nM) was 84.7% and the “time spiked samples were stable” value ([3]; murine plasma stored at -20°C) was “at least 72 hours”. The “time spiked samples were stable” value ([3]; murine plasma stored at -80°C) was ≥ 14 days, the “Average Concentration in castor oil emulsion” value (“Average Concentration” below) ([4]; Initial Concentration, room temperature, n=4) was 12.39 ± 1.21 mM and the “time emulsion was stable” value ([4]; R406 castor oil emulsion, room temperature) was 48 h. For the same compound, the “Average Concentration” value [4, 5] was 11.03 ± 2.09 mM, the “Percentage of Initial Concentration in castor oil emulsion” value (shortened to “Percentage of Initial Concentration”) [4, 5] was 89.0% and the “Average Concentration” value [4, 6] was 9.78 ± 3.13 mM. The “Percentage of Initial Concentration” value [4, 6] was 78.9%, the “Average Concentration” value [4, 7] was 12.45 ± 1.43 mM and the “Percentage of Initial Concentration” value [4, 7] was 100.5%. For the same compound, the “concentration of R406 achieved in emulsion” value ([4]; castor oil emulsion) was 6500 µM and the “time stable in castor oil emulsion” value ([4]; room temperature) was “at least 72 hours”.
